# Assay results published in PubChem BioAssay (NCI).
#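 Growth conditions: 96-well plates. Treatment: test compound, 48 hours, 5 concentrations. Analysis: linear interpolation between bracketing concentrations; unreached endpoints set to highest concentration. TGI marks complete inhibition of growth.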
# How the values were obtained:
# Experiment in all cases: growth of human tumour cells (NCI), 48 h
# 786-0 renal = tested on: 786-0 renal
# A498 renal = tested on: A498 renal
# A549 NSCLC = tested on: A549 NSCLC
# ACHN renal = tested on: ACHN renal
# BT-549 breast = tested on: BT-549 breast
# CAKI-1 renal = tested on: CAKI-1 renal
# CCRF-CEM leukemia = tested on: CCRF-CEM leukemia
# COLO 205 colon = tested on: COLO 205 colon
# DU-145 prostate = tested on: DU-145 prostate
# EKVX NSCLC = tested on: EKVX NSCLC
# HCC-2998 colon = tested on: HCC-2998 colon
# HCT-116 colon = tested on: HCT-116 colon
# HCT-15 colon = tested on: HCT-15 colon
# HL-60(TB) leukemia = tested on: HL-60(TB) leukemia
# HOP-62 NSCLC = tested on: HOP-62 NSCLC
# HOP-92 NSCLC = tested on: HOP-92 NSCLC
# HS 578T breast = tested on: HS 578T breast
# HT29 colon = tested on: HT29 colon
# K-562 leukemia = tested on: K-562 leukemia
# KM12 colon = tested on: KM12 colon
# LOX IMVI melanoma = tested on: LOX IMVI melanoma
# M14 melanoma = tested on: M14 melanoma
# MCF7 breast = tested on: MCF7 breast
# MDA-MB-231 breast = tested on: MDA-MB-231 breast
# MDA-MB-435 = tested on: MDA-MB-435
# MDA-N = tested on: MDA-N
# MOLT-4 leukemia = tested on: MOLT-4 leukemia
# NCI-H226 lung = tested on: NCI-H226 lung
# NCI-H23 lung = tested on: NCI-H23 lung
# NCI-H460 lung = tested on: NCI-H460 lung
# NCI-H522 lung = tested on: NCI-H522 lung
# NCI/ADR-RES ovarian = tested on: NCI/ADR-RES ovarian
# OVCAR-3 ovarian = tested on: OVCAR-3 ovarian
# OVCAR-4 ovarian = tested on: OVCAR-4 ovarian
# OVCAR-5 ovarian = tested on: OVCAR-5 ovarian
# OVCAR-8 ovarian = tested on: OVCAR-8 ovarian
# PC-3 prostate = tested on: PC-3 prostate
# RPMI-8226 leukemia = tested on: RPMI-8226 leukemia
# RXF 393 renal = tested on: RXF 393 renal
# SF-268 CNS = tested on: SF-268 CNS
# SF-295 CNS = tested on: SF-295 CNS
# SF-539 CNS = tested on: SF-539 CNS
# SK-MEL-2 melanoma = tested on: SK-MEL-2 melanoma
# SK-MEL-28 melanoma = tested on: SK-MEL-28 melanoma
# SK-MEL-5 melanoma = tested on: SK-MEL-5 melanoma
# SK-OV-3 ovarian = tested on: SK-OV-3 ovarian
# SN12C renal = tested on: SN12C renal
# SNB-75 CNS = tested on: SNB-75 CNS
# SR leukemia = tested on: SR leukemia
# SW-620 colon = tested on: SW-620 colon
# T-47D breast = tested on: T-47D breast
# TK-10 renal = tested on: TK-10 renal
# U251 CNS = tested on: U251 CNS
# UACC-257 melanoma = tested on: UACC-257 melanoma
# UACC-62 melanoma = tested on: UACC-62 melanoma
# UO-31 renal = tested on: UO-31 renal
# IGROV1 ovarian = tested on: IGROV1 ovarian
# MALME-3M melanoma = tested on: MALME-3M melanoma
# SNB-19 CNS = tested on: SNB-19 CNS
compound,measurement,setting,value
O=P1(N(CCCl)CCCl)Oc2ccc(Cl)cc2Sc2c(ccc(Cl)c2Cl)O1 (centres undefined),TGI,786-0 renal,> 100 µM
same,TGI,A498 renal,> 100 µM
same,TGI,A549 NSCLC,77.1 µM
same,TGI,ACHN renal,> 100 µM
same,TGI,BT-549 breast,> 100 µM
same,TGI,CAKI-1 renal,> 100 µM
same,TGI,CCRF-CEM leukemia,> 100 µM
same,TGI,COLO 205 colon,23 µM
same,TGI,DU-145 prostate,> 100 µM
same,TGI,EKVX NSCLC,> 100 µM
same,TGI,HCC-2998 colon,> 100 µM
same,TGI,HCT-116 colon,74.6 µM
same,TGI,HCT-15 colon,> 100 µM
same,TGI,HL-60(TB) leukemia,> 100 µM
same,TGI,HOP-62 NSCLC,> 100 µM
same,TGI,HOP-92 NSCLC,34.4 µM
same,TGI,HS 578T breast,33.6 µM
same,TGI,HT29 colon,> 100 µM
same,TGI,K-562 leukemia,> 100 µM
same,TGI,KM12 colon,> 100 µM
same,TGI,LOX IMVI melanoma,> 100 µM
same,TGI,M14 melanoma,> 100 µM
same,TGI,MCF7 breast,> 100 µM
same,TGI,MDA-MB-231 breast,> 100 µM
same,TGI,MDA-MB-435,> 100 µM
same,TGI,MDA-N,> 100 µM
same,TGI,MOLT-4 leukemia,> 100 µM
same,TGI,NCI-H226 lung,95 µM
same,TGI,NCI-H23 lung,> 100 µM
same,TGI,NCI-H460 lung,33.7 µM
same,TGI,NCI-H522 lung,> 100 µM
same,TGI,NCI/ADR-RES ovarian,> 100 µM
same,TGI,OVCAR-3 ovarian,> 100 µM
same,TGI,OVCAR-4 ovarian,> 100 µM
same,TGI,OVCAR-5 ovarian,> 100 µM
same,TGI,OVCAR-8 ovarian,> 100 µM
same,TGI,PC-3 prostate,> 100 µM
same,TGI,RPMI-8226 leukemia,> 100 µM
same,TGI,RXF 393 renal,43.9 µM
same,TGI,SF-268 CNS,> 100 µM
same,TGI,SF-295 CNS,> 100 µM
same,TGI,SF-539 CNS,> 100 µM
same,TGI,SK-MEL-2 melanoma,80.3 µM
same,TGI,SK-MEL-28 melanoma,> 100 µM
same,TGI,SK-MEL-5 melanoma,21.5 µM
same,TGI,SK-OV-3 ovarian,> 100 µM
same,TGI,SN12C renal,> 100 µM
same,TGI,SNB-75 CNS,67.3 µM
same,TGI,SR leukemia,> 100 µM
same,TGI,SW-620 colon,> 100 µM
same,TGI,T-47D breast,> 100 µM
same,TGI,TK-10 renal,> 100 µM
same,TGI,U251 CNS,> 100 µM
same,TGI,UACC-257 melanoma,> 100 µM
same,TGI,UACC-62 melanoma,> 100 µM
same,TGI,UO-31 renal,> 100 µM
COc1ccc([C@H]2CC(=O)C[C@H](c3ccc(OC)cc3OC)C23C(=O)c2ccccc2C3=O)c(OC)c1,TGI,786-0 renal,> 100 µM
same,TGI,A549 NSCLC,> 100 µM
same,TGI,ACHN renal,> 100 µM
same,TGI,BT-549 breast,> 100 µM
same,TGI,CAKI-1 renal,> 100 µM
same,TGI,CCRF-CEM leukemia,> 100 µM
same,TGI,COLO 205 colon,> 100 µM
same,TGI,DU-145 prostate,> 100 µM
same,TGI,EKVX NSCLC,> 100 µM
same,TGI,HCC-2998 colon,> 100 µM
same,TGI,HCT-116 colon,> 100 µM
same,TGI,HCT-15 colon,> 100 µM
same,TGI,HL-60(TB) leukemia,> 100 µM
same,TGI,HOP-62 NSCLC,> 100 µM
same,TGI,HOP-92 NSCLC,> 100 µM
same,TGI,HS 578T breast,> 100 µM
same,TGI,HT29 colon,> 100 µM
same,TGI,IGROV1 ovarian,> 100 µM
same,TGI,K-562 leukemia,> 100 µM
same,TGI,KM12 colon,> 100 µM
same,TGI,LOX IMVI melanoma,> 100 µM
same,TGI,M14 melanoma,> 100 µM
same,TGI,MALME-3M melanoma,> 100 µM
same,TGI,MCF7 breast,> 100 µM
same,TGI,MDA-MB-231 breast,> 100 µM
same,TGI,MDA-MB-435,> 100 µM
same,TGI,MDA-N,> 100 µM
same,TGI,MOLT-4 leukemia,> 100 µM
same,TGI,NCI-H226 lung,> 100 µM
same,TGI,NCI-H23 lung,> 100 µM
same,TGI,NCI-H460 lung,> 100 µM
same,TGI,NCI-H522 lung,> 100 µM
same,TGI,NCI/ADR-RES ovarian,> 100 µM
same,TGI,OVCAR-3 ovarian,> 100 µM
same,TGI,OVCAR-4 ovarian,> 100 µM
same,TGI,OVCAR-5 ovarian,> 100 µM
same,TGI,OVCAR-8 ovarian,> 100 µM
same,TGI,PC-3 prostate,> 100 µM
same,TGI,RPMI-8226 leukemia,> 100 µM
same,TGI,RXF 393 renal,> 100 µM
same,TGI,SF-268 CNS,> 100 µM
same,TGI,SF-295 CNS,> 100 µM
same,TGI,SF-539 CNS,> 100 µM
same,TGI,SK-MEL-2 melanoma,> 100 µM
same,TGI,SK-MEL-28 melanoma,> 100 µM
same,TGI,SK-MEL-5 melanoma,> 100 µM
same,TGI,SK-OV-3 ovarian,> 100 µM
same,TGI,SN12C renal,> 100 µM
same,TGI,SNB-19 CNS,> 100 µM
same,TGI,SNB-75 CNS,> 100 µM
same,TGI,SR leukemia,> 100 µM
same,TGI,SW-620 colon,> 100 µM
same,TGI,T-47D breast,> 100 µM
same,TGI,TK-10 renal,> 100 µM
same,TGI,U251 CNS,> 100 µM
same,TGI,UACC-257 melanoma,> 100 µM
same,TGI,UACC-62 melanoma,> 100 µM
same,TGI,UO-31 renal,> 100 µM
